This note sets out measurements from PMC3344384 (Chemistry & biology, 2011).

Entries after “also recorded” stand apart in the source; their conditions may differ. Where only a bound is given, the exact number is not on record here.

One data set has as its target T1, USP1 alone (Homo sapiens, UniProt O94782).
T1 sequence (O94782 1-785): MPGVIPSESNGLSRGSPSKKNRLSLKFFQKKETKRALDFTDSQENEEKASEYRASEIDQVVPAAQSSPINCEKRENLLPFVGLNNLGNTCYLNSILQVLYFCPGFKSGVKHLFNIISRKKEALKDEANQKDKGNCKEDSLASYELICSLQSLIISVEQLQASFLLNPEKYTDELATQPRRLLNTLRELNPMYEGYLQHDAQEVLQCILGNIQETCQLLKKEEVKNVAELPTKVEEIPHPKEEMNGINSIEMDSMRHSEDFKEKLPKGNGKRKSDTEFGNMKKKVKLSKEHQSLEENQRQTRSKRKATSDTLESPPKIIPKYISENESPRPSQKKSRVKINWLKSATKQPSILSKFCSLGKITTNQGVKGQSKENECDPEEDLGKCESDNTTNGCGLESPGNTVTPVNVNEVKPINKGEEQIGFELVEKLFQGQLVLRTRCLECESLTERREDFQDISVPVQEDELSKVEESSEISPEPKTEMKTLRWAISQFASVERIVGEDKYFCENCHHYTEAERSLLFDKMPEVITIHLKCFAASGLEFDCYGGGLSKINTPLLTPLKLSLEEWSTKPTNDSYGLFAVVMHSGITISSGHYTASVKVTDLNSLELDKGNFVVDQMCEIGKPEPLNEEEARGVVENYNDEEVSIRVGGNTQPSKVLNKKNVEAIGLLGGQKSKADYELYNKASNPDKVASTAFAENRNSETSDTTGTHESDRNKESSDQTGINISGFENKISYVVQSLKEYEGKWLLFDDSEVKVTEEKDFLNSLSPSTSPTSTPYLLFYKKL
The data set can be described thus: Ub-Rho assay, USP1 alone. The class given is biochemical. Particulars: Ub-Rho substrate, absence of UAF1 subunit.

A further data set can be described thus: in vitro. Particulars: human.
Data set [1] deals with Ub-FANCD2 in HEK293T cells. The data set can be described thus: Western blot of Ub-FANCD2 level in cells. It is filed as cell-based, human.
Data set [2] deals with T2, USP1/UAF1 (Homo sapiens, UniProt O94782+Q8TAF3). The data set can be described thus: reversibility of inhibition by rapid dilution. Particulars: incubation at 10 times IC50, 100-fold rapid dilution.
The target of the next data set is USP1/UAF1 complex (Homo sapiens, UniProt O94782+Q8TAF3). Briefly: native gel electrophoresis of USP1/UAF1 complex. The conditions noted are these: incubation with inhibitor up to 10 × IC50.
For the next data set, the system named is Ub-PCNA in HEK293T cells. Briefly: Western blot of Ub-PCNA level in cells. It is filed as cell-based, human.
The next data set deals with Ub-H2A in HEK293T cells. Briefly: histone H2A monoubiquitination in cells. The class given is cell-based, human. The conditions noted are these: in the presence or absence of cisplatin.
Data set [3] has as its target T2, USP1/UAF1. Briefly: steady-state kinetics. The class given is biochemical. The conditions noted are these: Lineweaver-Burk plots, K63-linked di-Ub substrate.
The target in data set [4] is T3, USP1/UAF1 (Homo sapiens, UniProt O94782). The data set can be described thus: steady-state kinetics. The class given is biochemical.
The next data set concerns the target USP7 (Homo sapiens, UniProt Q93009). Briefly: K63-linked diubiquitin cleavage assay, USP7. Particulars: for IC50 for USP7, fold higher than that for USP1/UAF1: K63-linked diubiquitin substrate.
Data set [5] has as its target T3, USP1/UAF1. Briefly: gel-based K63-linked diubiquitin cleavage assay, USP1/UAF1. It is filed as biochemical. The conditions noted are these: IC50 USP1/UAF1, K63-linked diubiquitin substrate; NI = no significant inhibition at highest inhibitor concentration of 114 μM.

Sequence of USP7 (Q93009 whole entry): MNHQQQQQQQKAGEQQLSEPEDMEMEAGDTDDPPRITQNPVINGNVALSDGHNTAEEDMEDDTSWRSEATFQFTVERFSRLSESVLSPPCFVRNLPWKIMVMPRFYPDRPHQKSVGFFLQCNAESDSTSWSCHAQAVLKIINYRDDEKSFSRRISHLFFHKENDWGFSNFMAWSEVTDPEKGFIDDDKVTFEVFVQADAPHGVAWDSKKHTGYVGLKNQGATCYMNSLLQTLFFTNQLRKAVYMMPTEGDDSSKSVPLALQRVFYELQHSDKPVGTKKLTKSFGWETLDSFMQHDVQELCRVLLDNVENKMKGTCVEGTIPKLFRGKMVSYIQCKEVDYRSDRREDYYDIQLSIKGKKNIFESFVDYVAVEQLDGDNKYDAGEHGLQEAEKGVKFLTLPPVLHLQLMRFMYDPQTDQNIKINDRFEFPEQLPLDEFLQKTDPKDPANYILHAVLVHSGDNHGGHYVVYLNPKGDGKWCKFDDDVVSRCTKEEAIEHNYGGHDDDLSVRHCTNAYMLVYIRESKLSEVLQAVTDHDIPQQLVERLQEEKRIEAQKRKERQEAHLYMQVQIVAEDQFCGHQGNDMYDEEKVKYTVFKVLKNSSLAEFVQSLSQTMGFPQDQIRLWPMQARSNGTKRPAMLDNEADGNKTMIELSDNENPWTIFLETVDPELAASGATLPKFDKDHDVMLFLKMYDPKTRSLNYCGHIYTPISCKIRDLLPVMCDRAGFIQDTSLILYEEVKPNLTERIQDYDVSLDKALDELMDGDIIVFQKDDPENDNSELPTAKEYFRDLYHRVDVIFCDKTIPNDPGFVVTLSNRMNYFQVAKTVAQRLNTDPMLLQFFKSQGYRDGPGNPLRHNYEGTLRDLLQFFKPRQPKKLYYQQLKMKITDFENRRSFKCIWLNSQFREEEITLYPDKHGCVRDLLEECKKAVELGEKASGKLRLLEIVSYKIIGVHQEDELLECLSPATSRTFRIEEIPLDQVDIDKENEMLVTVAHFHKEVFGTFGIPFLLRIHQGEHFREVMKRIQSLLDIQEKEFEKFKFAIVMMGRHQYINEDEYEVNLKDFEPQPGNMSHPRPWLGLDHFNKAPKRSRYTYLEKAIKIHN
T3 sequence (Q8TAF3 whole entry, one chain of several, further chain): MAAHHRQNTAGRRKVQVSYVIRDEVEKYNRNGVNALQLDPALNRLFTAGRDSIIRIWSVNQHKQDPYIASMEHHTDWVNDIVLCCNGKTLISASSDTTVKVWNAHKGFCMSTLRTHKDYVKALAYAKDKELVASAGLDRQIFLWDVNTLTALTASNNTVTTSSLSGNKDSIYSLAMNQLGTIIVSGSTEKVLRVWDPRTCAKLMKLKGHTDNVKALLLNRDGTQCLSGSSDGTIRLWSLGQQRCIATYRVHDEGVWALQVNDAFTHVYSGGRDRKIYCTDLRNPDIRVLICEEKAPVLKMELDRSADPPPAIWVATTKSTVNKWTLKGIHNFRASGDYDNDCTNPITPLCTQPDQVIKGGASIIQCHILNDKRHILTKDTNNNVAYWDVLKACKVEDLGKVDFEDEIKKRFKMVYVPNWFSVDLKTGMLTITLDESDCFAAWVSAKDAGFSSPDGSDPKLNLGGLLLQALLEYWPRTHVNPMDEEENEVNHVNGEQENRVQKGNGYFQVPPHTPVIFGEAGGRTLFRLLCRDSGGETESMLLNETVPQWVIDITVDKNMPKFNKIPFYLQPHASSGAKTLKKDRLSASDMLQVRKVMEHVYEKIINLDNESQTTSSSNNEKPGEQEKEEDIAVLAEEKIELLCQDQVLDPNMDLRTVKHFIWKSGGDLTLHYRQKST
T2 sequence (Q8TAF3 whole entry, one chain of several): as the sequence (Q8TAF3 whole entry, one chain of several, further chain) above
Sequence of USP1/UAF1 complex (Q8TAF3 whole entry, one chain of several): as the sequence (Q8TAF3 whole entry, one chain of several, further chain) above

Turning to `CC(C)(Sc1ccc(CCN(CCCCC2CCCCC2)C(=O)NC2CCCCC2)cc1)C(=O)O` [GW7647], the “inhibition of USP1 alone” value on USP1 alone was “low level of inhibition”. In the data set “in vitro”, the EC50 at 48 h is 26 µM. For the same molecule, the “Ub-FANCD2 level, single agent” value in [1] is “increase in Ub-FANCD2 level”. In addition, the reversibility of inhibition entry at USP1/UAF1 [2] is listed as “largely reversible inhibitors”. Besides, the “dissociation of the USP1/UAF1 complex” value on USP1/UAF1 complex is given as “no dissociation”. The “monoubiquitination of PCNA, single agent” value in the data set on Ub-PCNA in HEK293T cells is “significant increase”. Also, the “effect on level of Ub-H2A” value in the data set on Ub-H2A in HEK293T cells is recorded as “no effect”. Further, on USP1/UAF1 [3], the inhibition mechanism result was “noncompetitively; also recorded: noncompetitive inhibition mechanism”. The molecule further returned a Ki at USP1/UAF1 [4] of 0.7 µM. Also, at USP7, it took 44 ± 2 µM to reach half-maximal inhibition (IC50) and the “IC50 for USP7, fold higher than that for USP1/UAF1” value is 9 fold.

As for `O=c1[nH]c2ccccc2n1C1CCN(CCCC(c2ccc(F)cc2)c2ccc(F)cc2)CC1` [Pimozide, pimozide], the “inhibition of USP1 alone” value on USP1 alone is given as “low level of inhibition”. Besides, in “in vitro”, a half-maximal effect (EC50 at 48 h) was put at 21 µM. Further, in data set [1], the “Ub-FANCD2 level, single agent” value is on record as “increase in Ub-FANCD2 level”. At USP1/UAF1 [2], the reversibility of inhibition result was “largely reversible inhibitors”. The “dissociation of the USP1/UAF1 complex” value at USP1/UAF1 complex was “no dissociation”. Besides, the “monoubiquitination of PCNA, single agent” value with Ub-PCNA in HEK293T cells was “significant increase”. Further, the “effect on level of Ub-H2A” value in the data set with Ub-H2A in HEK293T cells is on record as “no effect”. Besides, the inhibition mechanism entry against USP1/UAF1 [3] is reported as “noncompetitively; also recorded: noncompetitive inhibition mechanism”. This molecule also had a Ki on USP1/UAF1 [4] of 0.5 µM. Further, at USP7, the IC50 came to 47 ± 1 µM and the “IC50 for USP7, fold higher than that for USP1/UAF1” value is 24 fold.

As for `CN1CCN(CCCN2c3ccccc3Sc3ccc(C(F)(F)F)cc32)CC1` [Trifluoperazine, trifluoperazine], the “inhibition of USP1 alone” value against USP1 alone is “low level of inhibition”. For the same molecule, the reversibility of inhibition result on USP1/UAF1 [2] is “largely reversible inhibitors”. The IC50 against USP1/UAF1 [5] is no more than 8 µM; against USP7 it was 9 ± 1 µM.

For the molecule `OCCN1CCN(CCC=C2c3ccccc3Sc3ccc(C(F)(F)F)cc32)CC1` [Flupenthixol, flupenthixol], the “inhibition of USP1 alone” value on USP1 alone is listed as “low level of inhibition”. Besides, the reversibility of inhibition entry on USP1/UAF1 [2] is recorded as “largely reversible inhibitors”. Further, the half-inhibitory concentration (IC50) on USP1/UAF1 [5] turned out to be 7 ± 1 µM; on USP7, 13 ± 1 µM.

The EC50 is the midpoint of the concentration-response curve. Low values mean a more potent agent, high ones a less potent agent. The term Ki denotes a measure of affinity in units of concentration, obtained from inhibition or displacement. Read a low Ki as tighter binding. The term IC50 denotes the concentration that gives 50% inhibition.
